Experimental data: US7098186B2, “Depsipeptide compound” (Astellas Pharma INC, priority 2002, dated 2006)

Legend:
Assay type in all cases: cell-based
[1] = system: Human colon cancer WiDr cells; test: Inhibition of cell proliferation against human cancer cells (Alamar Blue), WiDr; details: 72 hours culture
Experimental: (§1) Human colon cancer WiDr cells or human leukemia K562 cells were inoculated into a 96-well test plate at a density of 5×10^3 cell/well and cultured at 37° C. in a […] incubator. Eighteen hours after the inoculation, the solvent (DMSO) diluted with the medium and various concentrations of the compound Q or R were added, and followed by further culture at 37° C. in a […] incubator for 72 hours. After the culturing, the proliferation of cells was measured with Alamar Blue (BIOSOURCE Co.). The measurement values for the conditions in which 0.1% DMSO and cells had been added, and 0.1% DMSO had been added and cells had not been added were assigned to be 0% inhibition and 100% inhibition, respectively, and the proliferation inhibition rate for each concentration of the compounds was obtained, then the concentration of inhibiting proliferation by 50% (IC50 value) was calculated by logistic regression.

[2] = system: human leukemia K562 cells; test: Inhibition of cell proliferation against human cancer cells (Alamar Blue), K562; details: 72 hours culture
Experimental: as §1

[3] = system: acetylated histone H3 in K562 cells; test: Effect on inducing histone acetylation against human cancer cells (Western blot, anti-acetylated histone H3); details: 0.3 to 30 nM, 24 hours, in comparison with the sample treated with solvent
Experimental: After inoculating K562 cells into a 35 mm dish at a density of 1.5×10^6 cell/dish, the solvent (DMSO) and various concentrations (0.3 to 30 nM) of the compound Q or R were added and cultured at 37° C. in a […] incubator for 24 hours. Extraction of the histone protein was performed by the following method. To the cell precipitate collected by centrifugation, TEN buffer (10 mM Tris HCl (pH 8.0), 1 mM EDTA, 1% NP-40, 1 tablet/10 mL Complete mini (Roche Co.)) was added, stood on the ice for 10 minutes, and the supernatant was collected by centrifugation. The supernatant was mixed well with an equal amount of 0.4 M sulfuric acid, and stood on ice for 1 hour. The supernatant portion was collected by centrifugation, mixed with 5 times amount of acetone and stood at −20° C. for 12 hours or more. The precipitate was collected by centrifugation, washed once with acetone, and then the precipitate was dried. The precipitate was dissolved in distilled water, which was made to be histone protein, the protein concentration was determined by the Bradford method. […] For the primary antibody, an anti-acetylated histone H3 antibody (UPSTATE biotechnology Co.), for the secondary antibody, an HRP labeled anti-rabbit antibody (Amersham Pharmacia Biotech Co.) were used, and luminescence was detected by ECL (Amersham Pharmacia Biotech Co.).

SMILES | IC50 [1] [nM] | IC50 [2] [nM] | bands of acetylated histone H3 (induction of histone acetylation) [3]
CC1NC(=O)CC2/C=C/CCSSSCC(NC1=O)C(=O)NC(C(C)C)C(O)CC(=O)O2 (stereo not drawn) [compound Q] | 3 | 1.4 | significant and dose-dependent bands of acetylated histone H3 were detected
CC1NC(=O)CC2/C=C/CCSSCC(NC1=O)C(=O)NC(C(C)C)C(O)CC(=O)O2 (stereo not drawn) [compound R] | 0.9 | 0.6 | significant and dose-dependent bands of acetylated histone H3 were detected
